Test results: PMC11887385 (Virology Journal, 2025)

What was measured:
[1] = tested on: HIV-1 12,227 (101P/103N; 41L/215Y); experiment: Antiviral activity on resistant variant, TZM-bl F-Luc; type: cell-based; conditions: Human immunodeficiency virus 1, TZM-bl
[2] = tested on: HIV-1 7406 (190C; 41L/69S*/74 V/184 V/210W/215Y); experiment: as above; type: cell-based; conditions: Human immunodeficiency virus 1, TZM-bl
[3] = tested on: HIV-1 12,231 (103N/179F/181C; 41L/215F); experiment: as above; type: cell-based; conditions: Human immunodeficiency virus 1, TZM-bl
HIV-1 L100I = experiment: Antiviral activity on single RT mutant, TZM-bl F-Luc; type: cell-based; conditions: Human immunodeficiency virus 1, TZM-bl
[4] = tested on: HIV-1 12,241 (101E/138G/190S); experiment: Antiviral activity on resistant variant, TZM-bl F-Luc; type: cell-based; conditions: Human immunodeficiency virus 1, TZM-bl
[5] = tested on: HIV-1 7407 (103N; 70R/115F); experiment: as above; type: cell-based; conditions: Human immunodeficiency virus 1, TZM-bl
[6] = tested on: HIV-1 12,243 (100I/179D/230L; 41L/67G/74I); experiment: as above; type: cell-based; conditions: Human immunodeficiency virus 1, TZM-bl
HIV-1 G190S = experiment: Antiviral activity on single RT mutant, TZM-bl F-Luc; type: cell-based; conditions: Human immunodeficiency virus 1, TZM-bl
HIV-1NL4-3 [7] = experiment: Time-of-addition; type: cell-based; conditions: TZM-bl, MOI 0.5, read at 48 h
HIV-1 G190C = experiment: Antiviral activity on single RT mutant, TZM-bl F-Luc; type: cell-based; conditions: Human immunodeficiency virus 1, TZM-bl
[8] = tested on: HIV-1 7396 (41L/67N/69N/70R/215F); experiment: Antiviral activity on resistant variant, TZM-bl F-Luc; type: cell-based; conditions: Human immunodeficiency virus 1, TZM-bl
HIV-1NL4-3 [9] = experiment: Antiviral activity, TZM-bl reporter cells, F-Luc; type: cell-based
HIV-1 K101P = experiment: Antiviral activity on single RT mutant, TZM-bl F-Luc; type: cell-based; conditions: Human immunodeficiency virus 1, TZM-bl
HIV-1 K103N = experiment: as above; type: cell-based; conditions: Human immunodeficiency virus 1, TZM-bl
HIV-1 G190A = experiment: as above; type: cell-based; conditions: Human immunodeficiency virus 1, TZM-bl
HIV-1NL4-3 [10] = experiment: Viral replication in PBMCs, p24 […]; type: cell-based; conditions: Human immunodeficiency virus 1, NL43, PBMC, read-out: EC50 (1:5 dilution)
[11] = tested on: HIV-1NL4-3 early and late RT products; experiment: HIV-1 reverse transcripts in infected A3.01 cells, RT-qPCR; type: cell-based; conditions: A3.01, 1 μM, 6 h
[12] = tested on: HIV-1NL4-3-IRES-GFP proviral DNA; type: cell-based; conditions: HEK293T, 48 h
recombinant HIV-1 RTase = recombinant HIV-1 RTase (Human immunodeficiency virus type 1 group M subtype B, UniProt P04585); experiment: In vitro RTase assay; type: biochemical; conditions: IC50 against RTase, 0.5 unit RTase, 1 h, 24 °C
Cell viability test [13] = type: cell-based; conditions: human, TZM-bl cells, CC50 (1:5 dilution)
TZM-bl cells = experiment: Cell viability test; type: cell-based; conditions: 48 h
HIV-1 89.6 = experiment: Antiviral activity, TZM-bl reporter cells, F-Luc; type: cell-based; conditions: Human immunodeficiency virus 1, TZM-bl, read-out: EC50 (1:5 dilution)
Cell viability test [14] = type: cell-based; conditions: human, PBMCs
PBMCs = experiment: Cell viability test; type: cell-based
Cell viability test [15] = type: cell-based, human; conditions: human, A3.01 cells
A3.01 cells = experiment: Cell viability test; type: cell-based, human; conditions: A3.01
HIV-1JRCSF [16] = experiment: Antiviral activity, TZM-bl reporter cells, F-Luc; type: cell-based; conditions: Human immunodeficiency virus 1, TZM-bl, read-out: EC50 (1:5 dilution)
[17] = tested on: HIV-1NL4-3 integrated proviral DNA; experiment: Integrated proviral DNA in infected A3.01 cells, Alu-PCR; type: cell-based; conditions: A3.01, 1 μM
[18] = tested on: Tat-mediated viral transcription of LTR; experiment: Tat-mediated LTR transcription in bl-DTR cells; type: cell-based, HIV-1; conditions: doxycycline, 24 h
HIV-1 integrase = HIV-1 integrase (Human immunodeficiency virus type 1 group M subtype B, UniProt P04585); experiment: HIV-1 integrase assay kit; type: biochemical; conditions: 10 µM
HIV-1JRCSF [19] = experiment: Viral replication in PBMCs, p24 […]; type: cell-based; conditions: Human immunodeficiency virus 1, PBMC, read-out: EC50 (1:5 dilution)
HIV-1NL4-3 [20] = experiment: Viral replication in A3.01 T cells, p24 […]; type: cell-based; conditions: Human immunodeficiency virus 1, NL43, T-cell, read-out: EC50 (1:5 dilution)
[21] = Human immunodeficiency virus 1, TZM-bl, 48 h
[22] = Human immunodeficiency virus 1, TZM-bl
[23] = Human immunodeficiency virus 1, NL43, TZM-bl, read-out: EC50 (1:5 dilution)

## Cc1cn([C@H]2C[C@H](N=[N+]=[N-])[C@@H](CO)O2)c(=O)[nH]c1=O [AZT, zidovudine]
[1]
  EC50: 1000 ± 130 nM
[2]
  EC50: 15100 ± 2160 nM
[3]
  EC50: 630 ± 190 nM
HIV-1 L100I
  EC50: 70 ± 10 nM
[4]
  EC50: 80 ± 30 nM
[5]
  EC50: > 50000 nM
[6]
  EC50: 290 ± 10 nM
HIV-1 G190S
  EC50: 80 ± 10 nM
HIV-1NL4-3 [7]
  time postinfection of addition at which the inhibitory effect disappeared: 2 h
HIV-1 G190C
  EC50: 50 ± 10 nM
[8]
  EC50: 3830 ± 1210 nM
HIV-1NL4-3 [9]; [21]
  EC50: 290 ± 60 nM
HIV-1 K101P
  EC50: 40 nM
HIV-1 K103N
  EC50: 110 ± 10 nM
HIV-1 G190A
  EC50: 110 ± 10 nM

## Cc1nn(C(C)c2nnc(Nc3ccn(Cc4ccccc4)n3)s2)c(C)c1Br (centres unmarked) [BPPT, N-(1-benzyl-1H-pyrazol-3-yl)-5-[1-(4-bromo-3,5-dimethyl-1H-pyrazol-1-yl)ethyl]-1,3,4-thiadiazol-2-amine]
HIV-1NL4-3 [10]
  EC50: 80 ± 10 nM
[11]
  synthesis of viral cDNA, early and late stages of RT: greatly inhibited
[12]
  GFP signal and level of p24 in the supernatant from transfected cells: not inhibited
[1]
  EC50: > 50000 nM
Recombinant HIV-1 RTase
  IC50: 140 nM
[2]
  EC50: 350 ± 40 nM
[3]
  EC50: > 50000 nM
Cell viability test [13]
  CC50: > 50000 nM
TZM-bl cells
  no (severe) cytotoxicity up to: > 250 µM
HIV-1 L100I
  EC50: 3500 ± 650 nM
[4]
  EC50: 4570 ± 2300 nM
[5]
  EC50: 19700 ± 1600 nM
[6]
  EC50: > 50000 nM
HIV-1 G190S
  EC50: 280 ± 50 nM
HIV-1 89.6
  EC50: 90 nM
Cell viability test [14]
  CC50: > 50000 nM
PBMCs
  no cytotoxicity up to: > 50 µM
Cell viability test [15]
  CC50: > 50000 nM
A3.01 cells
  no cytotoxicity up to: > 50 µM
HIV-1NL4-3 [7]
  time postinfection of addition at which the inhibitory effect disappeared: 6 h
HIV-1 G190C
  EC50: 290 ± 30 nM
HIV-1JRCSF [16]
  EC50: 160 ± 10 nM
[17]
  integrated proviral DNA: low level of integrated proviral DNA
HIV-1NL4-3 [9]; [22]
  EC50: 60 nM
[18]
  Tat-mediated viral transcription of LTR: did not inhibit
HIV-1 K101P
  EC50: 1710 ± 30 nM
HIV-1 K103N
  EC50: 880 ± 120 nM
HIV-1 G190A
  EC50: 70 nM
HIV-1 integrase
  integrase activity: did not affect
HIV-1JRCSF [19]
  EC50: 40 ± 30 nM
HIV-1NL4-3 [20]
  EC50: 160 ± 20 nM

## C[C@@H]1CCO[C@H]2Cn3cc(C(=O)NCc4ccc(F)cc4F)c(=O)c(O)c3C(=O)N12 [DTG, Dolutegravir]
HIV-1NL4-3 [7]
  time postinfection of addition at which the inhibitory effect disappeared: 8 h

## O=C1Nc2ccc(Cl)cc2[C@@](C#CC2CC2)(C(F)(F)F)O1 [EFV, efavirenz]
[3]
  EC50: 180 ± 220 nM
Cell viability test [13]
  CC50: 25900 nM
HIV-1 L100I
  EC50: 20 nM
[5]
  EC50: 350 ± 30 nM
HIV-1 G190S
  EC50: 120 ± 10 nM
HIV-1 G190C
  EC50: 390 ± 90 nM
[8]
  EC50: 1 nM
HIV-1NL4-3 [9]; [23]
  EC50: 1 nM
HIV-1NL4-3 [9]; [21]
  EC50: 1 nM
HIV-1 K101P
  EC50: 20 nM
HIV-1 K103N
  EC50: 40 ± 10 nM
HIV-1 G190A
  EC50: 10 nM

## Cc1ccnc2c1NC(=O)c1cccnc1N2C1CC1 [NVP, nevirapine]
[1]
  EC50: > 50000 nM
[2]
  EC50: > 50000 nM
[3]
  EC50: > 50000 nM
Cell viability test [13]
  CC50: > 50000 nM
HIV-1 L100I
  EC50: 180 ± 40 nM
[4]
  EC50: > 50000 nM
[5]
  EC50: > 50000 nM
[6]
  EC50: 21400 ± 2210 nM
HIV-1 G190S
  EC50: 32700 ± 4490 nM
HIV-1 G190C
  EC50: 23800 ± 3310 nM
[8]
  EC50: 350 ± 70 nM
HIV-1NL4-3 [9]; [23]
  EC50: 80 ± 180 nM
HIV-1NL4-3 [9]; [21]
  EC50: 80 ± 20 nM
HIV-1 K101P
  EC50: 8310 ± 600 nM
HIV-1 K103N
  EC50: 4550 ± 270 nM
HIV-1 G190A
  EC50: 15700 ± 2730 nM

## Cc1nnc(C(=O)NC(C)(C)c2nc(C(=O)NCc3ccc(F)cc3)c(O)c(=O)n2C)o1 [RAL, raltegravir]
HIV-1NL4-3 [7]
  time postinfection of addition at which the inhibitory effect disappeared: 8 h

## Cc1cc(/C=C/C#N)cc(C)c1Nc1ccnc(Nc2ccc(C#N)cc2)n1 [RPV, rilpivirine]
HIV-1NL4-3 [9]; [22]
  EC50: 0.7 nM

## CC(C)[C@]12O[C@H]1[C@@H]1O[C@]13[C@]1(O[C@H]1C[C@H]1C4=C(CC[C@@]13C)C(=O)OC4)[C@@H]2O [TPL, triptolide]
HIV-1NL4-3 [7]
  time postinfection of addition at which the inhibitory effect disappeared: 24 h

## O=C(Nc1ccc(S(=O)(=O)O)c2ccccc12)c1ccc(=O)oc1 [compound 1, 4-(2-oxo-2H-pyran-5-carboxamido)naphthalene-1-sulfonic acid]
HIV-1NL4-3 [9]; [21]
  EC50: 8480 nM

## CCc1cc(=O)oc2cc(OC(CC)C(=O)c3ccccc3)ccc12 (centres unmarked) [compound 2, 4-ethyl-7-((1-oxo-1-phenylbutan-2-yl)oxy)-2H-chromen-2-one]
HIV-1NL4-3 [9]; [21]
  EC50: 4890 nM

## CC(C)(C)c1cc([N+](=O)[O-])cc(C=O)c1O [compound 3, 3-tert-butyl-2-hydroxy-5-nitrobenzaldehyde]
HIV-1NL4-3 [9]; [21]
  EC50: 1470 nM

## COc1cccc(C=NNC(=S)NN)c1OC [compound 4, 1-amino-3-[(2,3-dimethoxyphenyl)methylideneamino]thiourea]
HIV-1NL4-3 [9]; [21]
  EC50: 6390 nM

## Enfuvirtide [T20]
HIV-1NL4-3 [7]
  time postinfection of addition at which the inhibitory effect disappeared: 1 h
